The source of these data is patent publication US5525735A, “Methods for synthesizing diverse collections of pyrrolidine compounds” (AFFYMAX Technologies NV, priority 1994, dated 1996).

Read-outs that look alike come from different tables or passages of the source.

In assay [1] the target is T1, rabbit kidney ACE (Oryctolagus cuniculus, UniProt P12822).
T1 construct: purchased Sigma; host or cells: rabbit kidney
T1 sequence (P12822 34-1310): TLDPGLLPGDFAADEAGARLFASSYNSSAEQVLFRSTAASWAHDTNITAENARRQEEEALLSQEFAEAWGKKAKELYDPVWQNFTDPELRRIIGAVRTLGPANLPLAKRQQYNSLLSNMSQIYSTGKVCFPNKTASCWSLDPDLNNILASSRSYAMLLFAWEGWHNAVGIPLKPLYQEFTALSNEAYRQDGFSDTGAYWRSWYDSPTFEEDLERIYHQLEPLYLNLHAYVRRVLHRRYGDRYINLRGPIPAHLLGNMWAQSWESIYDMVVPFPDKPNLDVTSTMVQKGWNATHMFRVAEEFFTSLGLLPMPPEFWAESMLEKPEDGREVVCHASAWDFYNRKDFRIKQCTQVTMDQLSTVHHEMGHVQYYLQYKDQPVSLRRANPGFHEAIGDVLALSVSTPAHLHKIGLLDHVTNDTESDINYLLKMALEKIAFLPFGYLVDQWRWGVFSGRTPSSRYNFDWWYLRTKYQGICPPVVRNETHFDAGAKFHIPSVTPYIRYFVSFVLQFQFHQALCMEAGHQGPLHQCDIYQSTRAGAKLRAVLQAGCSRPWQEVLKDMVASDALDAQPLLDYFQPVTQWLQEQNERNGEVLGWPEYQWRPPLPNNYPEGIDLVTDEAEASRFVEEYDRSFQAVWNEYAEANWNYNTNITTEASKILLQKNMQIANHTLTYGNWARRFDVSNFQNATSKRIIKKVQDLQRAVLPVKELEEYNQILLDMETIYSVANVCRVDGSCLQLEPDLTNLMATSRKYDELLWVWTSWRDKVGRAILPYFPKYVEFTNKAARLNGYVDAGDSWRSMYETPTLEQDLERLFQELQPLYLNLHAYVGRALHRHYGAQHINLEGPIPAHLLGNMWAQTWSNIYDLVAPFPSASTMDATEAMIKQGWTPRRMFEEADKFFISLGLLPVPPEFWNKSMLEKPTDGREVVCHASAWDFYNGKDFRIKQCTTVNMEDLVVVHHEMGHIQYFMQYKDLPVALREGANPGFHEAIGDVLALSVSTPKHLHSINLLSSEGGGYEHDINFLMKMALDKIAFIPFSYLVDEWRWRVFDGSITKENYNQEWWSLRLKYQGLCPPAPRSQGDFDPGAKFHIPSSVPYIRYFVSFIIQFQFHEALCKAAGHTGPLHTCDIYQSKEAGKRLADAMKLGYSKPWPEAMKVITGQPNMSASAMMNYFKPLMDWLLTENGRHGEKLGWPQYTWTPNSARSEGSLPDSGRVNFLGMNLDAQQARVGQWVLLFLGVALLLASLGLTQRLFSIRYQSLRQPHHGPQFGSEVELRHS
The assay is described as follows: Determination of inhibition constants (Ki), fluorometric ACE assay, hydrolysis of Hippuryl-His-Leu. The format is biochemical. The procedure:
The product, His-Leu, was then derivatized to a fluorophore by the addition of 2% o-phthalaldehyde (0.1 mL) in MeOH, followed by incubation at 25° C. for 8 minutes, addition of 2N HCl (0.2 mL), and then measuring fluorescence after 15 minutes incubation at 25° C.
The fluorescence intensity (arbitrary units) was determined using an SLM Aminco model 8000 spectrofluorometer equipped with a temperature regulated cell using an excitation wavelength at 360 nm and with an emission wavelength at 490 nm. The amount of His-Leu formed with time was determined from standard curves of fluorescence versus concentration of His-Leu (Sigma).
Inhibition constants were determined from double reciprocal plots of rate of product formation versus substrate concentration in the absence and presence of inhibitor.

In assay [2] the target is T1, rabbit kidney ACE. The assay is described as follows: in vitro inhibition of ACE by soluble compound pools (deconvolution analysis of library, fluorometric assay, IC50). The following applies: identified by iterative assay and sub-library resynthesis. The format is biochemical. An excerpt: Functionalized prolines and proline analogs are frequently found as the C-terminal residue in numerous ACE inhibitors. Using the methods described herein, a library of prolines and proline analogs has been prepared. The library was formed by the split synthesis method^35, using four amino acids, four aldehydes, five olefins, and three mercaptoacyl chlorides as shown in FIG. 3 below. […] After cleavage from the resin (10% TFA in dichloromethane) and deacetylation of the protected mercaptoacyl proline products with ethylenediamine, the library was screened for in vitro inhibition of ACE^33 as soluble compound pools through four iterations of assay and sub-library resynthesis. At each step of this deconvolution analysis, the building block affording the most inhibitory pool was selected for the subsequent sub-library resynthesis.
To each product was added 200 μ.LAMBDA. of 1.0M ethylenediamine in methanol under nitrogen. […] The ACE inhibitory activity of each pool was immediately determined. […]
The fluorescence intensity (arbitrary units) was determined using an SLM Aminco model 8000 spectrofluorometer equipped with a temperature regulated cell using an excitation wavelength at 360 nm and with an emission wavelength at 490 nm. The amount of His-Leu formed with time was determined from standard curves of fluorescence versus concentration of His-Leu (Sigma). […]

Consider `COC(=O)[C@@H]1C[C@H](C(=O)O)N(C(=O)[C@H](C)CS)[C@@H]1c1ccccc1` (single isomer, unassigned) [earlier eluting isomer], for which the Ki at rabbit kidney ACE [1] (after deacetylation, isomer assigned 2-R, read-out: Ki (individual diastereomers after deacetylation, earlier eluting isomer)) is above 1000 nM.

Consider `COC(=O)[C@H]1C[C@@H](C(=O)O)N(C(=O)[C@H](C)CS)[C@H]1c1ccccc1` [Compound 9, 1-(3'-thio-2'(S)-methyl-1'-oxopropyl)-5-phenyl-2,4-pyrrolidinedicarboxylicacid 4-methyl ester], for which the inhibitory constant (Ki) at rabbit kidney ACE [1] (50 pM enzyme, 20 minute preincubation, assay times 10 or 20 minutes, pH 8.3, read-out: Ki (dissociation constant of the enzyme-inhibitor complex)) was 0.16 ± 0.05 nM; on rabbit kidney ACE [1] (after deacetylation, read-out: Ki (individual diastereomers after deacetylation, later eluting isomer)), around 0.16 nM. In addition, the type of inhibition result at rabbit kidney ACE [1] (double reciprocal plots, 50 pM enzyme, 20 minute preincubation) is listed as “competitive type inhibition”. Also, the “fold more active than captopril” value on rabbit kidney ACE [1] (relative to captopril in the same assay) is given as “approximately 3 fold”. Also, the “ACE inhibitory activity in words (library deconvolution)” value at rabbit kidney ACE [2] is “potent ACE inhibitor”.
